The Ki is the dissociation constant of the complex between target and ligand, obtained from inhibition or displacement.

Bounds are passed on as bounds.

One assay deals with T1, Human Recombinant Matriptase 2 (Homo sapiens, UniProt Q8IU80).
T1 construct: made in house
T1 sequence (Q8IU80 1-811): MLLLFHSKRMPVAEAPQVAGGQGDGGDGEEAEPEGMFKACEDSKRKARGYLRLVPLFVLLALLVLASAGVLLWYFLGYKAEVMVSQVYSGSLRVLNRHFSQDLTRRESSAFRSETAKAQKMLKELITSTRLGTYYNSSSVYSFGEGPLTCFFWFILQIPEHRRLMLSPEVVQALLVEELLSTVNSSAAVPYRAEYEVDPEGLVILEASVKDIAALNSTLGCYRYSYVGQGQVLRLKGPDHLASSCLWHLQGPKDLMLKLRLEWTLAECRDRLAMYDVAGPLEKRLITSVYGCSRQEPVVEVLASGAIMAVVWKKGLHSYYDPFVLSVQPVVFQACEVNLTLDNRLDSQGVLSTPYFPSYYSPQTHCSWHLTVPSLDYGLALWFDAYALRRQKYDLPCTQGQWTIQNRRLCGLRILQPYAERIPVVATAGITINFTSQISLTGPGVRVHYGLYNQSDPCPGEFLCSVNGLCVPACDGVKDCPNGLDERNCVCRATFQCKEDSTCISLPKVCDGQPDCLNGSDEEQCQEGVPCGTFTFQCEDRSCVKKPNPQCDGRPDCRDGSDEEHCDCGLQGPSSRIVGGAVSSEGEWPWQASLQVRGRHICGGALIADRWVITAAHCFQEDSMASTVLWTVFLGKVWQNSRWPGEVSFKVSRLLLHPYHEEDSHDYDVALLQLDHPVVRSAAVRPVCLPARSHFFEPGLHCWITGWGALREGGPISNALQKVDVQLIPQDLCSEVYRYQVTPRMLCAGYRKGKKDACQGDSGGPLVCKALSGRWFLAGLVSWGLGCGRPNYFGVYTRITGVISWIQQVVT
The experiment in a line: Matriptase 2 inhibition, fluorescence based assay (Method I). The settings on record: Table A; Ki of Matriptase-2; read-out: Mat-2 Ki. Format: biochemical. The method, boiled down: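 Fluorogenic readout (Ex 360/Em 480 nm) taken 60 min after adding 62 μM Boc-Gln-Ala-Arg-AMC, following 30-min enzyme–compound preincubation at 25 °C. Conditions: 3.5 nM in-house enzyme, pH 7.5 Tris/NaCl/gelatin buffer, 1% DMSO; percent inhibition versus concentration fitted by variable-slope sigmoidal regression.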
In the case of `CCOC(=O)c1cc2ccc(CN)nc2n1Cc1cc(NS(=O)(=O)[C@@H](C)c2ccccc2)cc2ccccc12` (racemic) [Compound 119, ethyl 6-(aminomethyl)-1-{[3-(1-phenylethanesul-fonamido)naphthalen-1-yl]methyl}-1H-pyrrolo-[2,3-b]pyridine-2-car-boxylate], the Ki fell in the range of 500 to 3000 nM. For the molecule `NCc1ccc2cc(C(=O)O)n(Cc3cc(NS(=O)(=O)CC[C@@H]4CCCN4)cc4ccccc34)c2n1` [Compound 1, (S)-6-(aminomethyl)-1-((3-((2-(pyrrolidin-2-yl)ethyl)sulfonamido)naphthalen-1-yl)methyl)-1H-pyrrolo[2,3-b]pyridine-2-carboxylic acid], the Ki is no more than 100 nM.

`NCc1ccc2cc(C(=O)OCCN3CCCC3)n(Cc3cc(NS(=O)(=O)Cc4ccccc4)cc4ccccc34)c2n1` [Compound 69, 2-(pyrrolidin-1-yl)ethyl 6-(aminomethyl)-1-{[3-(phenylmethanesulfon-amido)naphthalen-1-yl]-methyl}-1H-pyrrolo[2,3-b]pyridine-2-carboxylate]: the Ki is no more than 100 nM. Take `NCc1ccc2cc(C(=O)NCCS(N)(=O)=O)n(Cc3cc(NS(=O)(=O)Cc4ccccc4)cc4ccccc34)c2n1` [Compound 78, 6-(aminomethyl)-1-{[3-(phenylmethanesulfon-amido)naphthalen-1-yl]-methyl}-N-(2-sulfamoyl-ethyl)-1H-pyrrolo[2,3-b]pyridine-2-carboxamide]: the Ki was no more than 100 nM. The same measure, in the same setting: the same measure for `CC(C)N1CCC(CNC(=O)c2cc3ccc(CN)nc3n2Cc2cc(NS(=O)(=O)Cc3ccccc3)cc3ccccc23)CC1` [Compound 14, 6-(aminomethyl)-1-{[3-(phenylmethanesulfon-amido)naphthalen-1-yl]-methyl}-N-{[1-(propan-2-yl)piperidin-4-yl]-methyl}-1H-pyrrolo-[2,3-b]pyridine-2-car-boxamide]: no more than 100 nM; for `NCc1ccc2cc(C(=O)OCC34CCN(CC3)CC4)n(Cc3cc(NS(=O)(=O)Cc4ccccc4)cc4ccccc34)c2n1` [Compound 19, {1-azabicyclo[2.2.2]-octan-4-yl}methyl 6-(aminomethyl)-1-{[3-(phenylmethanesulfon-amido)naphthalen-1-yl]-methyl}-1H-pyrrolo[2,3-b]pyridine-2-carboxylate]: no more than 100 nM; for `CC(=O)N1CCC(COC(=O)c2cc3ccc(CN)nc3n2Cc2cc(NS(=O)(=O)Cc3ccccc3)cc3ccccc23)CC1` [Compound 67, (1-acetylpiperidin-4-yl)-methyl 6-(aminomethyl)-1-{[3-(phenylmethane-sulfonamido)naphthalen-1-yl]methyl}-1H-pyr-rolo[2,3-b]pyridine-2-carboxylate]: no more than 100 nM.

In the case of `C[C@@H](c1ccccc1)S(=O)(=O)Nc1cc(Cn2c(C(=O)OCC3CCN(C)CC3)cc3ccc(CN)nc32)c2ccccc2c1` (racemic) [Compound 11, (1-methylpiperidin-4-yl)methyl 6-(aminometh-yl)-1-{[3-(1-phenyl-ethanesulfonamido)naph-thalen-1-yl]methyl}-1H-pyrrolo[2,3-b]pyridine-2-carboxylate], the Ki is no more than 100 nM. For `COCCN1CCC[C@H](COC(=O)c2cc3ccc(CN)nc3n2Cc2cc(NS(=O)(=O)Cc3ccccc3)cc3ccccc23)C1` (racemic) [Compound 144, rac-[(3R)-1-(2-methoxy-ethyl)piperidin-3-yl]-methyl 6-(aminometh-yl)-1-(phenylmethane-sulfonamido)naphthalen-1-yl]methyl}-1H-pyrrolo-[2,3-b]pyridine-2-car-boxylate], the Ki was no more than 100 nM. Take `Cc1cccc(C)c1CS(=O)(=O)Nc1cc(Cn2c(C(=O)OCc3nccn3C)cc3ccc(CN)nc32)c2ccccc2c1` [Compound 191, (1-methyl-1H-imidazol-2-yl)methyl 6-(amino-methyl)-1-({3-[(2,6-dimethylphenyl)meth-anesulfonamido]naph-thalen-1-yl}methyl)-1H-pyrrolo[2,3-b]pyridine-2-carboxylate]: the Ki is no more than 100 nM.

Consider `CN(C)C(=O)COC(=O)c1cc2ccc(CN)nc2n1Cc1cc(NS(=O)(=O)Cc2ccccc2)cc2ccccc12` [Compound 139, (dimethylcarbamoyl)-methyl 6-(aminomethyl)-1-{[3-(phenylmethane-sulfonamido)naphthalen-1-yl]methyl}-1H-pyrrolo-[2,3-b]pyridine-2-car-boxylate], for which the Ki is 100 to 500 nM. Take `Cn1cncc1COC(=O)c1cc2ccc(CN)nc2n1Cc1cc(NS(=O)(=O)Cc2ccsc2)cc2ccccc12` [Compound 155, (1-methyl-1H-imidazol-5-yl)methyl 6-(amino-methyl)-1-({3-[(thiophen-3-yl)methanesulfon-amido]naphthalen-1-yl}-methyl)-1H-pyrrolo[2,3-b]pyridine-2-carboxylate]: the Ki is no more than 100 nM.

Staying with this assay, now noted: Table A; Ki of Matriptase-2 given as class symbols; read-out: Mat-2 Ki.
`NCc1ccc2cc(C(=O)O)n(Cc3cc(NS(=O)(=O)Cc4ccncc4)cc4ccccc34)c2n1` [Compound 245, 6-(aminomethyl)-1-({3-[(pyridin-4-yl)methane-sulfonamido]naphthalen-1-yl}methyl)-1H-pyr-rolo[2,3-b]pyridine-2-carboxylic acid]: the Ki is 100 to 500 nM. As for `Cn1ccnc1COC(=O)c1cc2ccc(CN)cc2n1Cc1cc(NS(=O)(=O)Cc2ccsc2)cc2ccccc12` [Compound 381, (1-methyl-1H-imidazol-2-yl)methyl 6-(amino-methyl)-1-({3-[(thio-phen-3-yl)methanesulfon-amido]naphthalen-1-yl}-methyl)-1H-indole-2-carboxylate], the Ki is no more than 100 nM.

For `C[C@@H]1CN(C(=O)Nc2cc(Cn3c(C(=O)O)cc4ccc(CN)nc43)c3ccccc3c2)CCN1` [Compound 295, 6-(aminomethyl)-1-[(3-{[(3R)-3-methylpipera-zine-1-carbonyl]amino}-naphthalen-1-yl)methyl]-1H-pyrrolo[2,3-b]pyr-idine-2-carboxylic acid], the Ki lay in the range of 500 to 3000 nM. With `Cc1nc(CS(=O)(=O)Nc2cc(Cn3c(C(=O)O)cc4ccc(CN)nc43)c3ccccc3c2)cs1` [Compound 256, 6-(aminomethyl)-1-({3-[(2-methyl-1,3-thiazol-4-yl)methanesulfon-amido]naphthalen-1-yl}-methyl)-1H-pyrrolo[2,3-b]pyridine-2-carboxylic acid], the Ki lay in the range of 100 to 500 nM. As to `NCc1ccc2cc(C(=O)O)n(Cc3cc(NS(=O)(=O)Cc4ccsc4)cc4c3CCCC4)c2n1` [Compound 287, 6-(aminomethyl)-1-({3-[(thiophen-3-yl)methane-sulfonamido]-5,6,7,8-tetrahydronaphthalen-1-yl}methyl)-1H-pyrrolo-[2,3-b]pyridine-2-carbox-ylic acid], the Ki lay within 100 to 500 nM.

With `CN1CCC[C@@H]1COC(=O)Nc1cc(Cn2c(C(=O)O)cc3ccc(CN)nc32)c2ccccc2c1` [Compound 336, 6-(aminomethyl)-1-({3-[({[(2R)-1-methylpyr-rolidin-2-yl]methoxy}-carbonyl)amino]naph-thalen-1-yl}methyl)-1H-pyrrolo[2,3-b]pyr-idine-2-carboxylic acid], the Ki fell in the range of 100 to 500 nM. Turning to `NCc1ccc2cc(C(=O)O)n(Cc3cc(NS(=O)(=O)CCN4CCNCC4)cc4ccccc34)c2n1` [Compound 214, 6-(aminomethyl)-1-({3-[2-(piperazin-1-yl)-ethanesulfonamido]-naphthalen-1-yl}meth-yl)-1H-pyrrolo[2,3-b]-pyridine-2-carboxylic acid], the Ki is no more than 100 nM. On to `NCc1ccc2cc(C(=O)O)n(Cc3cc(NS(=O)(=O)CC[C@H]4CCCN4)cc4ccccc34)c2n1` [Compound 217, 6-(aminomethyl)-1-[(3-{2-[(2R)-pyrrolidin-2-yl]ethanesulfonamido}-naphthalen-1-yl)methyl]-1H-pyrrolo[2,3-b]pyr-idine-2-carboxylic acid], for which the Ki lay in the range of 100 to 500 nM. On to `NCc1ccc2cc(C(=O)O)n(Cc3cc(NS(=O)(=O)CC[C@@H]4CCCN4)cc4ccccc34)c2c1` [Compound 389, 6-(aminomethyl)-1-[(3-{2-[(2S)-pyrrolidin-2-yl]ethanesulfonamido}-naphthalen-1-yl)methyl]-1H-indole-2-carboxylic acid], for which the Ki is 100 to 500 nM.

Take `CN1CCC(COC(=O)c2cc3ccc(CN)nc3n2Cc2cc(NS(=O)(=O)Cc3ccccc3)cc3c2CCCC3)CC1` [Compound 286, (1-methylpiperidin-4-yl)methyl 6-(aminomethyl)-1-((3-((phenylmethyl)sulfonamido)-5,6,7,8-tetrahydronaphthalen-1-yl)methyl)-1H-pyrrolo[2,3-b]pyridine-2-carboxylate]: the Ki was no more than 100 nM.

Still in this assay, the particulars now being: Table B; Human Recombinant Matriptase 2, 3.5 nM enzyme, 62 μM substrate, 30 mins preincubation; read-out: Mean Ki.
For the molecule `CN1CC(CCOC(=O)c2cc3ccc(CN)nc3n2Cc2cc(NS(=O)(=O)Cc3ccsc3)cc3ccccc23)CC1=O` (centres unmarked) [Compound 2.6], the Ki is no more than 100 nM.
